Measured values reported in US11607417B2, “Uses of celastrol in preventing and/or treating cholestatic liver disease and liver fibrosis” (KUNMING INSTITUTE OF BOTANY, THE CHINESE ACADEMY OF SCIENCES, priority 2017, dated 2023).

Assays:
[1] = test system: TAA-induced cholestatic liver injury in FXR knockout mice; test: Effect of FXR on celastrol activity in TAA model (Example 6); type: in vivo, FXR knockout mice (C57BL/6J as background)
Description: The same experimental method of Example 2 was used, wherein the experimental animals were FXR knockout mice (C57BL/6J as background), and the FXR knockout mice were presented by Frank J. Gonzalez, a researcher of the Cancer Institute of National Institutes of Health, USA.

[2] = test system: ANIT-induced cholestatic liver injury in FXR knockout mice; test: Effect of FXR on celastrol activity in ANIT model (Example 5); type: in vivo, FXR knockout mice (C57BL/6J as background)
Description: The same experimental method of Example 1 was used, wherein the experimental animals were FXR knockout mice (C57BL/6J as background), and the FXR knockout mice were presented by Frank J. Gonzalez, a researcher of the Cancer Institute of National Institutes of Health, USA.

[3] = test system: ANIT-induced cholestatic liver injury under SIRT1 inhibition; test: Effect of SIRT1 inhibition (EX527) on celastrol activity in ANIT model (Example 3); type: in vivo, C57BL/6 mice
Experimental: A total of 24 male C57BL/6 mice were divided into four groups: blank group (n=6); model group (n=6); treatment group (n=6); and EX527 group (n=6).
Celastrol was dissolved in a solvent to obtain a celastrol solution at a concentration of 2 mg/mL, wherein the solvent consisted of 1% DMSO, 2% Tween 80, and 97% water (v:v:v). For intragastrical administration, the dosage of celastrol was 10 mg/kg·d. ANIT was dissolved in corn oil to obtain a corn oil solution of ANIT at a concentration of 15 mg/mL, and the dosage of ANIT for intragastrical administration was 75 mg/kg. EX527 was dissolved in corn oil to obtain a corn oil solution of EX527 at a concentration of 2 mg/mL, and the dosage of EX527 for intraperitoneal injection was 10 mg/kg·d.
The EX527 group was simultaneously administrated with the celastrol solution and the EX527 corn oil solution for 5 consecutive days. The treatment group was administrated with the celastrol solution and an equal dosage of corn oil for 5 consecutive days. At the same time, the blank group and the model group were administrated with equal dosages of solvent (1% DMSO, 2% Tween 80 and 97% water (v:v:v)) and corn oil, and the solvent was administrated for 5 consecutive days.
On the 3rd day of administration, ANIT model was established. 4 Hours after administration, the mice in the model group, the treatment group and the EX527 group were respectively intraperitoneally injected with the ANIT corn oil solution at a dosage of 75 mg/kg for single administration to induce cholestatic liver injury, and the blank group was fed with an equal dosage of corn oil. After the model was established on the 3rd day of administration, the treatment group was continuously administrated with celastrol, the EX527 group was continuously administrated with celastrol and EX527, and the blank group and the model group were continuously administrated with the same dosage of solvent. 48 Hours after administration with ANIT, the mice were sacrificed by CO2 anesthesia, and mouse liver samples and plasma samples were taken. The eyeballs of the mice were taken for blood collection. The plasma samples were placed on ice for 1-2 hours, centrifuged at 4000 g for 5 minutes at 4° C., and the supernatants of the plasma samples were taken to determine plasma biochemical indicators, the levels of ALT, AST and ALP.
At the same time, plasma samples were prepared: 10 μL of plasma sample was taken, mixed well with 190 μL of 67% acetonitrile (containing 5 μM internal standard chlorpropamide), centrifuged at 18000 g for 20 minutes at 4° C., and the supernatant was taken for sample injection. The liquid chromatography conditions were as follows: the injection volume was 5 μL; the temperature of column was 45° C.; the flow rate of mobile phase was 0.3 mL/min; the gradient elution was that acetonitrile concentration changed from 2% to 98% during 16 minutes of operation, wherein the mobile phase (water/acetonitrile solution) contained 0.01% formic acid. The elution procedure was as follows: during 0-12th minute, the acetonitrile concentration changed from 2% to 98% at a constant rate; during 12-14th minute, the acetonitrile concentration was maintained at 98%; during 14-14.1th minute, the acetonitrile concentration changed from 98% to 2%; during 14.1-16th minute, the acetonitrile concentration was maintained at 2%. Mass spectrometry conditions were as follows: the temperature of dry gas was 350° C., the pressure of nebulizer was 35 psi, and the voltage of capillary was 3.5 kV.
Part of the collected mouse liver tissue was fixed overnight in formalin and tissue sections were stained with hematoxylin and eosin (H&E).

[4] = test system: TAA-induced liver fibrosis; test: TAA-induced liver fibrosis in mice (Example 7); type: in vivo, C57BL/6 mice; details: three times per week from second week, TAA 6 weeks
Experimental: A total of 30 male C57BL/6 mice were divided into three groups: blank group (n=10); TAA liver fibrosis group (n=10); treatment group (n=10).
Celastrol was dissolved in a solvent to obtain a celastrol solution at a concentration of 2 mg/mL, wherein the solvent consisted of 1% DMSO, 2% Tween 80, and 97% water (v:v:v); for intragastrical administration, the dosage of celastrol was 10 mg/kg/time, three times per week, and the administration was absent in the first week. TAA was dissolved in 0.9% NaCl solution to prepare a NaCl solution of TAA at a concentration of […], and the dosage for intraperitoneal administration was 100 mg/kg/time in the first week and 160 mg/kg/time in the second to sixth week, three times per week.
The model group and the treatment group were administrated with TAA three times per week, and administered every other day. The dosage of TAA was 100 mg/kg each time during the first week. From the second week onwards, the dosage of TAA administered to the model group and the treatment group was changed to 160 mg/kg each time. The blank group was given an equal dosage of NaCl solution.
The treatment group was administrated with celastrol from the second week, in which celastrol at a dosage of 10 mg/kg was administered 1 hour after administration with TAA. The blank group and the model group were administrated with an equal dosage of solvent (1% DMSO, 2% Tween 80, and 97% water (v: v: v)).
Six weeks later, mice were sacrificed by CO2 anesthesia, and mouse plasma samples and liver samples were collected. The eyeballs of the mice were taken for blood collection. The plasma samples were placed on ice for 1-2 hours, centrifuged at 4000 g for 5 minutes at 4° C., and the supernatants of plasma samples were taken to determine the plasma biochemical indicators, the levels of ALT, AST, and ALP.
Part of the collected mouse liver tissue was fixed overnight in formalin, and tissue sections were stained with hematoxylin and eosin (H&E).

[5] = method of Example 1, ANIT model, FIG. 5A
[6] = treatment group: celastrol 10 mg/kg·d, P<0.05, FIG. 3E
[7] = celastrol 10 mg/kg/time, P<0.05, FIG. 7D

With `CC1=C(O)C(=O)C=C2C1=CC=C1[C@@]2(C)CC[C@@]2(C)[C@@H]3C[C@](C)(C(=O)O)CC[C@]3(C)CC[C@]12C` [celastrol, Celastrol] the “Levels of bile acids in plasma vs model group” value ([1]; co-MCA, DCA, TCA, THDCA/TUDCA, TCDCA, method of Example 2, FIG. 6E) was “no significant decrease”, the “H&E staining of liver tissue” value ([1]; method of Example 2, TAA model, FIG. 6C) was “a severe necrosis of liver cells also occurred” and the “AST level in plasma vs model group” value ([1]; method of Example 2, TAA model, FIG. 6D) was “no significant decrease”. For the same compound, the “Levels of bile acids in plasma vs ANIT model group” value ([2]; CA, DCA, TβMCA/TαMCA, TCA, THDCA/TUDCA, method of Example 1, FIG. 5B) was “no significant decrease”, the “ALP level in plasma vs model group” value [2, 5] was “no significant decrease” and the “ALT level in plasma vs model group” value [2, 5] was “no significant decrease”. The “Levels of bile acids in plasma vs model group” value ([3]; CA, DCA, TβMCA/TαMCA, TCA, THDCA/TUDCA, treatment group: celastrol 10 mg/kg·d, FIG. 3F) was “significantly lower”, the “H&E staining of mouse liver tissue” value ([3]; treatment group: celastrol 10 mg/kg·d intragastric + corn oil, FIG. 3C) was “no obvious damage” and the “ALP level in plasma vs model group” value [3, 6] was “lower”. The “ALT level in plasma vs model group” value [3, 6] was “lower”, the “AST level in plasma vs model group” value [3, 6] was “lower” and the “H&E staining: liver tissue damage and liver morphology” value ([4]; celastrol 10 mg/kg/time intragastric, n=10, FIG. 7C) was “reduced and the liver morphology was also significantly recovered”. The “ALT level in plasma vs model group” value [4, 7] was “significantly lower” and the “AST level in plasma vs model group” value [4, 7] was “significantly lower”.
